Measurements reported in US11040028B2, “Penicinotam derivative, preparation method and use thereof” (OCEAN UNIVERSITY OF CHINA, priority 2017, dated 2021).

Key:
Type in all cases: cell-based
[1] = tested on: human lung fibroblasts HFL1; test: Anti-fibrosis activity test: inhibition of proliferation of human lung fibroblasts HFL1 (CCK-8); details: Homo sapiens, HFL1, 48 h
Outline: (§1)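 48 h compound treatment of fibroblast-type cells seeded at 2×10^4 cells/mL, 37° C, 5% CO2; viability by CCK-8 (2 h, A450). Inhibition rate calculated against blank control, IC50 by curve fitting; pirfenidone served as reference.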

[2] = tested on: human embryonic lung fibroblast IMR-90; test: Anti-fibrosis activity test: inhibition of proliferation of human embryonic lung fibroblast IMR-90 (CCK-8)
Outline: as §1

BHK-21 cells = test: Anti-fibrosis activity test: inhibition of BHK-21 cell proliferation (CCK-8); details: Mesocricetus auratus, BHK-21, 48 h
Outline: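 Proliferation of BHK-21 cells is measured by CCK-8 at 450 nm following 48 h compound exposure at several concentrations. Inhibition is expressed relative to blank control and IC50 is computed from it.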

[3] = tested on: cardiac fibroblast RAT-iCell-C002; test: Anti-fibrosis activity test: inhibition of proliferation of cardiac fibroblast RAT-iCell-C002 (CCK-8); details: Cardiac fibroblast, 48 h
Outline: as §1

[4] = tested on: human hepatic stellate cells LX-2; test: Anti-fibrosis activity test: inhibition of proliferation of human hepatic stellate cells LX-2 (CCK-8); details: Homo sapiens, 48 h
Outline: as §1

[5] = tested on: mouse macrophages (RAW264.7); test: Lipopolysaccharide-induced NO secretion in macrophages (Griess); details: Mus musculus, RAW264.7, 24 h, RAW264.7, LPS 1 μg/ml, a/b isomers given as first/second symbol, read-out: IC50 (μM), inhibition of lipopolysaccharide-induced NO secretion in macrophages
Outline: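 RAW264.7 macrophages in DMEM with 10% FBS received test samples at several concentrations and were stimulated with 1 μg/ml LPS for 24 h. NO in the supernatant was measured with the Griess reagent at 548 nm, […].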

[6] = tested on: human fibrosarcoma cells HT-1080; test: Anti-fibrosis activity test: inhibition of proliferation of human fibrosarcoma cells HT-1080 (CCK-8); details: Homo sapiens, HT-1080, 48 h
Outline: as §1

[7] = tested on: human dermal fibroblasts CCC-ESF-1; test: Anti-fibrosis activity test: inhibition of proliferation of human dermal fibroblasts CCC-ESF-1 (CCK-8); details: Fibroblast
Outline: as §1

[8] = human lung fibroblasts HFL1, CCK-8, 48 hours
[9] = human embryonic lung fibroblast IMR-90, CCK-8, 48 hours
[10] = CCK-8, 48 hours after administration
[11] = cardiac fibroblast RAT-iCell-C002, CCK-8, 48 hours
[12] = human hepatic stellate cells LX-2, CCK-8, 48 hours
[13] = human fibrosarcoma cells HT-1080, CCK-8, 48 hours
[14] = human dermal fibroblasts CCC-ESF-1, CCK-8, 48 hours
[15] = Homo sapiens, IMR-90 cells, 48 h, CCK-8
[16] = Homo sapiens, CCC-ESF-1 cells, 48 h, CCK-8

Structure (SMILES)	IC50 [1, 8]	IC50 [2, 9]	IC50 (BHK-21 cells; [10])	IC50 [3, 11]	IC50 [4, 12]	IC50 [5]	IC50 [6, 13]	IC50 [7, 14]	IC50 ([1]; HFL1 cells, 48 h, CCK-8)	IC50 [2, 15]	IC50 (BHK-21 cells; 48 h, CCK-8)	IC50 ([3]; RAT-iCell-C002 cells, CCK-8)	IC50 ([4]; LX-2, 48 h, LX-2 cells, CCK-8)	IC50 ([6]; HT-1080 cells, 48 h, CCK-8)	IC50 [7, 16]
O=C1c2c(nc3cc(F)ccc3c2OCc2ccc(F)cc2)-c2cccn21 [Compound 490b, 6-fluoro-9-((4-fluorobenzyl)oxy)-10H-pyrrolizino[1,2-b]quinolin-10-one]	0.05 to 5 mM	0.05 to 5 mM	0.05 to 5 mM	0.05 to 5 mM	0.05 to 5 mM	1 to 10 µM	0.05 to 5 mM	0.05 to 5 mM	–	–	–	–	–	–	–
O=C1c2c(n(Cc3cccc(F)c3)c3cc(F)ccc3c2=O)-c2cccn21 [Compound 491a, 6-Fluoro-4-(3-fluorobenzyl)-9H-pyrrolizino[1,2-b]quinoline-9,10(4H)-dione]	0.05 to 5 mM	0.05 to 5 mM	< 0.05 mM	0.05 to 5 mM	0.05 to 5 mM	10 to 50 µM	0.05 to 5 mM	0.05 to 5 mM	–	–	–	–	–	–	–
O=C1c2c(nc3cc(F)ccc3c2OCc2cccc(F)c2)-c2cccn21 [Compound 491b, 6-fluoro-9-((3-fluorobenzyl)oxy)-10H-pyrrolizino[1,2-b]quinolin-10-one]	0.05 to 5 mM	0.05 to 5 mM	0.05 to 5 mM	0.05 to 5 mM	0.05 to 5 mM	1 to 10 µM	0.05 to 5 mM	0.05 to 5 mM	–	–	–	–	–	–	–
O=C1c2c(n(Cc3cccc(Cl)c3)c3cc(F)ccc3c2=O)-c2cccn21 [Compound 497a, 4-(3-Chlorobenzyl)-6-fluoro-9H-pyrrolizino[1,2-b]quinoline-9,10(4H)-dione]	0.05 to 5 mM	0.05 to 5 mM	0.05 to 5 mM	< 0.05 mM	0.05 to 5 mM	0.1 to 1 µM	0.05 to 5 mM	0.05 to 5 mM	–	–	–	–	–	–	–
O=C1c2c(nc3cc(F)ccc3c2OCc2cccc(Cl)c2)-c2cccn21 [Compound 497b, 9-((3-chlorobenzyl)oxy)-6-fluoro-10H-pyrrolizino[1,2-b]quinolin-10-one]	0.05 to 5 mM	0.05 to 5 mM	0.05 to 5 mM	0.05 to 5 mM	0.05 to 5 mM	1 to 10 µM	0.05 to 5 mM	0.05 to 5 mM	–	–	–	–	–	–	–
O=C1c2c([nH]c3cc(Cl)ccc3c2=O)-c2cccn21 [Compound 500a, 6-Chloro-9H-pyrrolizino[1,2-b]quinoline-9,10(4H)-dione]	0.05 to 5 mM	0.05 to 5 mM	0.05 to 5 mM	0.05 to 5 mM	< 0.05 mM	0.1 to 1 µM	0.05 to 5 mM	0.05 to 5 mM	–	–	–	–	–	–	–
O=C1c2c(nc3cc(Cl)ccc3c2O)-c2cccn21 [Compound 500b, 6-chloro-9-hydroxy-10H-pyrrolizino[1,2-b]quinolin-10-one]	0.05 to 5 mM	0.05 to 5 mM	0.05 to 5 mM	0.05 to 5 mM	0.05 to 5 mM	1 to 10 µM	0.05 to 5 mM	0.05 to 5 mM	–	–	–	–	–	–	–
O=C1c2c(n(Cc3ccc(F)cc3)c3cc(Cl)ccc3c2=O)-c2cccn21 [Compound 502a, 6-Chloro-4-(4-fluorobenzyl)-9H-pyrrolizino[1,2-b]quinoline-9,10(4H)-dione]	0.05 to 5 mM	0.05 to 5 mM	0.05 to 5 mM	< 0.05 mM	0.05 to 5 mM	1 to 10 µM	0.05 to 5 mM	0.05 to 5 mM	–	–	–	–	–	–	–
O=C1c2c(nc3cc(Cl)ccc3c2OCc2ccc(F)cc2)-c2cccn21 [Compound 502b, 6-chloro-9-((4-fluorobenzyl)oxy)-10H-pyrrolizino[1,2-b]quinolin-10-one]	0.05 to 5 mM	0.05 to 5 mM	0.05 to 5 mM	0.05 to 5 mM	0.05 to 5 mM	1 to 10 µM	0.05 to 5 mM	0.05 to 5 mM	–	–	–	–	–	–	–
O=C1c2c(n(Cc3ccccc3F)c3cc(Cl)ccc3c2=O)-c2cccn21 [Compound 504a, 6-Chloro-4-(2-fluorobenzyl)-9H-pyrrolizino[1,2-b]quinoline-9,10(4H)-dione]	0.05 to 5 mM	0.05 to 5 mM	< 0.05 mM	0.05 to 5 mM	0.05 to 5 mM	1 to 10 µM	0.05 to 5 mM	0.05 to 5 mM	–	–	–	–	–	–	–
O=C1c2c(nc3cc(Cl)ccc3c2OCc2ccccc2F)-c2cccn21 [Compound 504b, 6-chloro-9-((2-fluorobenzyl)oxy)-10H-pyrrolizino[1,2-b]quinolin-10-one]	0.05 to 5 mM	0.05 to 5 mM	0.05 to 5 mM	0.05 to 5 mM	0.05 to 5 mM	1 to 10 µM	0.05 to 5 mM	0.05 to 5 mM	–	–	–	–	–	–	–
O=C1c2c(n(Cc3ccc(Cl)cc3)c3cc(Cl)ccc3c2=O)-c2cccn21 [Compound 508a, 6-Chloro-4-(4-chlorobenzyl)-9H-pyrrolizino[1,2-b]quinoline-9,10(4H)-dione]	0.05 to 5 mM	0.05 to 5 mM	0.05 to 5 mM	0.05 to 5 mM	0.05 to 5 mM	1 to 10 µM	5 to 20 mM	0.05 to 5 mM	–	–	–	–	–	–	–
O=C1c2c(nc3cc(Cl)ccc3c2OCc2ccc(Cl)cc2)-c2cccn21 [Compound 508b, 6-chloro-9-((4-chlorobenzyl)oxy)-10H-pyrrolizino[1,2-b]quinolin-10-one]	0.05 to 5 mM	0.05 to 5 mM	0.05 to 5 mM	0.05 to 5 mM	0.05 to 5 mM	1 to 10 µM	< 0.05 mM	0.05 to 5 mM	–	–	–	–	–	–	–
Cc1ccc2[nH]c3c(c(=O)c2c1)-c1cccn1C3=O [Compound 777a, 9-Methyl-5H-pyrrolizino[2,1-b]quinoline-5,11(6H)-dione]	–	–	–	–	–	10 to 50 µM	–	–	0.05 to 5 mM	0.05 to 5 mM	< 0.05 mM	0.05 to 5 mM	0.05 to 5 mM	0.05 to 5 mM	0.05 to 5 mM
Cc1ccc2nc3c(c(O)c2c1)-c1cccn1C3=O [Compound 777b, 11-hydroxy-9-methyl-5H-pyrrolizino[2,1-b]quinolin-5-one]	–	–	–	–	–	1 to 10 µM	–	–	0.05 to 5 mM	0.05 to 5 mM	0.05 to 5 mM	0.05 to 5 mM	0.05 to 5 mM	0.05 to 5 mM	0.05 to 5 mM
Cc1ccc2c(=O)c3c([nH]c2c1)C(=O)n1cccc1-3 [Compound 778a, 8-Methyl-5H-pyrrolizino[2,1-b]quinoline-5,11(6H)-dione]	–	–	–	–	–	10 to 50 µM	–	–	0.05 to 5 mM	0.05 to 5 mM	0.05 to 5 mM	0.05 to 5 mM	0.05 to 5 mM	0.05 to 5 mM	0.05 to 5 mM
